The results in this text go back to ChEMBL document CHEMBL3045457, “Synthesis and insecticidal activity of N-substituted (1,3-thiazole)alkyl sulfoximine derivatives” (2008).

The structures appear in SMILES notation.

The subject of this assay is Myzus persicae. Put plainly: Insecticidal activity against Myzus persicae (green peach aphid) in horsebean shoot assessed as mortality at 10 mg/l at 25 +/-1 degC treated for 2 secs measured after 16 hr. Format: functional.
Regarding `CCOc1nc(C(F)(F)F)c(CS(C)(=O)=NC#N)s1` (configuration not stated), the mortality at 10 µg/mL was 68%.

Regarding `CS(=O)(Cc1sc(Cl)nc1C(F)(F)F)=NC#N` (configuration not stated), the mortality at 10 µg/mL amounted to 100%. `CS(=O)(Cc1cnc(Br)s1)=NC#N` (configuration not stated): the mortality at 10 µg/mL was found to be 93%.

`CS(=O)(Cc1sc(Br)nc1C(F)(F)F)=NC#N` (configuration not stated): the mortality at 10 µg/mL turned out to be 48%. In the case of `Cc1nc(Cl)sc1CS(C)(=O)=NC#N` (configuration not stated), the mortality at 10 µg/mL was 0%.

`CS(=O)(Cc1cnc(Cl)s1)=NC#N` (configuration not stated): the mortality at 10 µg/mL is 75%.

As to `CS(=O)(Cc1ccc(Cl)nc1)=NC#N` (configuration not stated), the mortality at 10 µg/mL stood at 100%.

As a reminder, the mortality is the percentage killed.
